{
  "source": "patent US9493542B2",
  "about": "“Methods of using ERBB2 conjugate peptides” (Augusta University Research Institute, Inc., priority 2013, dated 2016)",
  "key": {"[1]": {"tested_on": "ErbB2", "experiment": "ErbB2 stability and pErbB2 in SKBR3 cells after cycloheximide (Western blot)", "assay_type": "cell-based", "design": "dose or concentration left out as unconfirmed", "conditions": "TAT-B2tail for 1 hour prior to CHX, compared to TAT-Ctrl"}, "[2]": {"tested_on": "Human breast BT474 cancer cells", "experiment": "BT474 breast tumor growth in fat pads of nude mice, intratumoral peptide injection", "assay_type": "in vivo", "conditions": "25 μl 5 mM peptide injected into tumors twice a week, one month, versus TAT-Ctrl", "description": "FIG. 7 is a microscopy image of a breast cancer tumor treated with Tat-ErbB2tail. TAT-ErbB2tail peptide inhibits breast tumor growth in nude mice. Human breast BT474 cancer cells (100 μl, 3.0×10^5 cells in 50% Matri-gel) were injected into fat pads of both sides of female mice. Resulting tumors were injected 2 weeks later with control (TAT-ctrl, left) or B2tail (TAT-B2tail, right) peptide (25 u.l, 5 mM), twice a week. Shown were representative images before injection (A, A′) and one month after injection (B, B′).\nThe results identify the ErbB2-Erbin interaction as a therapeutic target for fighting ErbB2-positive breast cancers. To test this, B2tail was tested for the ability to inhibit tumor growth in mice. Human breast BT474 cancer cells (100 ul, 3.0×10^5 cells in 50% Matri-gel) were injected into fat pads of both sides of virgin, female mice. Resulting tumors were injected 2 weeks later with control (TAT-Ctrl) or B2tail (TAT-B2tail) peptide (25 μl, 5 mM), twice a week[[.]]."}, "[3]": {"tested_on": "BT474 cells", "experiment": "MTS proliferation assay, BT474 cells", "assay_type": "cell-based, human", "conditions": "20 μM peptide, 24 hours", "excerpt": "(§1) FIGS. 5A-5H show the requirement of the Erbin-ErbB2 interaction for ErbB2 stabilization and autophosphorylation and ErbB2-dependent proliferation of breast cancer cells. (A)-(B) Quantitative analysis of pErbB2 and ErbB2 levels in western blots showing decreased ErbB2 expression and autophosphorylation by Erbin-PDZ domain. HEK293 cells were transfected with Flag-ErbB2 with increasing doses of Myc-Erbin-PDZ. Cell lysates were blotted with antibodies against ErbB2, pErbB2 and Myc. (C) Quantitative analysis of western blot data showing the disruption of the Erbin-ErbB2 interaction by B2tail. Lysates of transfected cells expressing Flag-ErbB2 or Myc-Erbin were incubated with control peptide (Ctrl) or B2tail. The Erbin complex was precipitated using anti-Myc antibody and probed for ErbB2. n=3, *P<0.05, compared to Ctrl. […] SKBR3 cells were incubated with 20 μM TAT-Ctrl or TAT-B2tail, for 1 hour prior to analysis of ErbB2 stability. n=3, *P<0.05, **P<0.01, compared to TAT-Ctrl. […] Cells were treated with 20 μM TAT-Ctrl or TAT-B2tail peptide for 24 hours and analyzed by MTS assay. […] (F) PDZ deletion inhibited tumorigenesis in MMTV-neu mice on incipient congenic FVB background. […]\n(§2) Cell proliferation was measured by MTS assay, as described previously (Zhang, S., et al., Nature medicine, 17, 461-469, 2011). […] Optical density was measured at wavelength of 490 nm."}, "[4]": {"tested_on": "SKBR3 cells", "experiment": "MTS proliferation assay, SKBR3 cells", "assay_type": "cell-based", "conditions": "20 μM peptide, 24 hours", "excerpt": "as §1, §2"}, "[5]": {"target": "T1, Erbin-ErbB2 interaction (Homo sapiens, UniProt Q96RT1)", "T1 construct": "HEK293 cells were transfected with Flag-ErbB2 alone or together with full length Erbin; expressed in transfected cells; host or cells: Transfected cells", "T1 sequence (Q96RT1 whole entry)": "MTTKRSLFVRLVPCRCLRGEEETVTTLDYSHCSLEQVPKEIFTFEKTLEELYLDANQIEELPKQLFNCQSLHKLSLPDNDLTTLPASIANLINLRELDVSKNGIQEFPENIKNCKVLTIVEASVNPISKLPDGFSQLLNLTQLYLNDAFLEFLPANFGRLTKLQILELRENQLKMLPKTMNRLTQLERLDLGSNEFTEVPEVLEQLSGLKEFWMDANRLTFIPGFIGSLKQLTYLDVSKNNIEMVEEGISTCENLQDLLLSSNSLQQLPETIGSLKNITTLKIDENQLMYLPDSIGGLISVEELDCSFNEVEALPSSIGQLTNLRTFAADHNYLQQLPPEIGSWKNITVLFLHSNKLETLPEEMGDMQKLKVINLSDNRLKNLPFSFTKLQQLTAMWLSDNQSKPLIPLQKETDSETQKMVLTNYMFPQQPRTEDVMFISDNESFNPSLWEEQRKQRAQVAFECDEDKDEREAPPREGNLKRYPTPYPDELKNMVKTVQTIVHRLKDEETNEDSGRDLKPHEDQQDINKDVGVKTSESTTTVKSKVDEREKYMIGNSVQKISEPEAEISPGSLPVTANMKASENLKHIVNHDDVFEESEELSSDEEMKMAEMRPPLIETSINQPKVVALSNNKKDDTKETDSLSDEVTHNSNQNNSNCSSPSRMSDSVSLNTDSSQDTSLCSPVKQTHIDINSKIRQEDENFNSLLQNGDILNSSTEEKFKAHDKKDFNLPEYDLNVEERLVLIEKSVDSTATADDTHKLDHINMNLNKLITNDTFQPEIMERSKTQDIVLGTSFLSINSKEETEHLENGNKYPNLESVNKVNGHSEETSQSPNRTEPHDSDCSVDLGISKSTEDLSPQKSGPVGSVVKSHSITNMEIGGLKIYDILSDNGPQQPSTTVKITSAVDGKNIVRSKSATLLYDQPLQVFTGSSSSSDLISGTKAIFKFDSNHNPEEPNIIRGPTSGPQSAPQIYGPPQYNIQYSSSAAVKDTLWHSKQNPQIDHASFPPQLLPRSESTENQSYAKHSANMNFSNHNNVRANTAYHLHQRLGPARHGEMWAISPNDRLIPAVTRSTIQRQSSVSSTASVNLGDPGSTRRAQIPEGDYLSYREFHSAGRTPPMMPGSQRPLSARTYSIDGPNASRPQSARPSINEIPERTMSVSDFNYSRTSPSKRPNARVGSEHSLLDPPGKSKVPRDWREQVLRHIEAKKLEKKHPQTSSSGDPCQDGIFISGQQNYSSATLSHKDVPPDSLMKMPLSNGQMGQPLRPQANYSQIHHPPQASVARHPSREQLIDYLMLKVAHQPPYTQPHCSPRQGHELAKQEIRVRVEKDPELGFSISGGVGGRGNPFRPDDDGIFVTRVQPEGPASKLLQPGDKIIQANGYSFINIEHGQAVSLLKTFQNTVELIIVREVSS", "experiment": "Co-immunoprecipitation of Flag-ErbB2 with Myc-Erbin from lysates incubated with peptide", "assay_type": "binding", "conditions": "in vitro; lysates with Flag-ErbB2 or Myc-Erbin, anti-Myc precipitation; compared to control peptide", "excerpt": "FIGS. 5A-5H show the requirement of the Erbin-ErbB2 interaction for ErbB2 stabilization and autophosphorylation and ErbB2-dependent proliferation of breast cancer cells. (A)-(B) Quantitative analysis of pErbB2 and ErbB2 levels in western blots showing decreased ErbB2 expression and autophosphorylation by Erbin-PDZ domain. HEK293 cells were transfected with Flag-ErbB2 with increasing doses of Myc-Erbin-PDZ. Cell lysates were blotted with antibodies against ErbB2, pErbB2 and Myc. (C) Quantitative analysis of western blot data showing the disruption of the Erbin-ErbB2 interaction by B2tail. Lysates of transfected cells expressing Flag-ErbB2 or Myc-Erbin were incubated with control peptide (Ctrl) or B2tail. The Erbin complex was precipitated using anti-Myc antibody and probed for ErbB2. n=3, *P<0.05, compared to Ctrl. […] Cells were treated with 20 μM TAT-Ctrl or TAT-B2tail peptide for 24 hours and analyzed by MTS assay. […]\nFor immunoprecipitation, cells were lysed in lysis buffer (50 mM Tris-HCl, pH 7.4, 150 mM NaCl, 1% NP-40, 0.5% Triton-X-100, 1 mM PMSF, 1 mM EDTA, 5 mM NaF, 2 mM Na3VO4, and protease inhibitor cocktails). […] Immunoreactive bands were visualized using enhanced chemiluminescence (Pierce), scanned with an Epson 1680 scanner, and analyzed with Image J. […]"}, "[6]": {"tested_on": "HSP90", "experiment": "HSP90 inhibition by 17-AAG: ErbB2 and Erbin levels and ErbB2 complex", "assay_type": "cell-based", "excerpt": "Erbin regulation of ErbB2 stability was investigated. […] Intriguingly, the effect of 17-AAG could not be blocked by Erbin overexpression (data not shown), indicating Erbin acts upstream or at level of HSP90. ErbB2, HSP90, and Erbin can form a ternary complex necessary for ErbB2 stability. HSP90 as well as Erbin was detectable in the complex of ErbB2 and Erbin interacted HSP90 (data not shown). […] Conversely, Erbin knockdown inhibited the HSP90-ErbB2 interaction (data not shown)."}, "[7]": {"target": "T2, ErbB2 (Homo sapiens, UniProt P04626)", "T2 construct": "expressed in transfected cells; host or cells: HEK293", "experiment": "Coexpression of Erbin PDZ domain with Flag-ErbB2 in HEK293 cells (Western blot)", "assay_type": "cell-based", "conditions": "Flag-ErbB2 with increasing doses of Myc-Erbin-PDZ", "excerpt": "as §1, with “background. Erbin^ΔC/ΔC mice were backcrossed for 5 generations with FVB wild types and then crossed with FVB-congenic MMTV-neu.” for “background.”"}, "[8]": {"conditions": "17-AAG treatment (data not shown)"}},
  "data": [
    {"molecule": "YGRKKRRQRRR-G-PTAENPEYLGLDVPV [TAT-B2tail]", "values": [
      {"measurement": "ErbB2 reduction (stability) after CHX", "setting": "[1]", "value": "ErbB2 reduction was faster"},
      {"measurement": "pErbB2 levels", "setting": "[1]", "value": "pErbB2 levels were reduced"},
      {"measurement": "size of breast tumors", "setting": "[2]", "value": "appeared to decrease"},
      {"measurement": "decrease of proliferation", "setting": "[3]", "value": "~35", "unit": "%"},
      {"measurement": "decrease of proliferation", "setting": "[4]", "value": "about 40%"}
    ]},
    {"molecule": "PTAENPEYLGLDVPV [B2tail]", "values": [
      {"measurement": "disruption of the Erbin-ErbB2 interaction", "setting": "[5]", "value": "able to disrupt the Erbin-ErbB2 interaction"}
    ]},
    {"molecule": "C=CCNC1=C2C[C@@H](C)C[C@H](OC)[C@H](O)[C@@H](C)/C=C(\\C)[C@H](OC(N)=O)[C@@H](OC)/C=C\\C=C(/C)C(=O)NC(=CC1=O)C2=O", "note": "[17-AAG]", "values": [
      {"measurement": "ErbB2 degradation", "setting": "[6]; [8]", "value": "resulted in ErbB2 degradation"},
      {"measurement": "Erbin levels", "setting": "[6]; [8]", "value": "no effect"},
      {"measurement": "ErbB2 level after brief treatment", "setting": "[6]; 17-AAG, 1 hour", "value": "without altering ErbB2 level"},
      {"measurement": "amount of Erbin in the ErbB2 complex", "setting": "[6]; 17-AAG, 1 hour", "value": "reduced"}
    ]},
    {"molecule": "PDZ domain of Erbin: Erbin PDZ domain, starts at amino acid 1318 of Erbin, expressed as Myc-tagged construct in HEK293 cells (protein, Myc tag; PDZ domain, Erbin PDZ domain, starts at amino acid 1318 of Erbin, expressed as Myc-tagged construct in HEK293 cells) AKQEIRVRVEKDPELGFSISGGVGGRGNPFRPDDDGIFVTRVQPEGPASKLLQPGDKIIQANGYSFINIEHGQAVSLLKTFQNTVELIIVREV", "values": [
      {"measurement": "ErbB2 phosphorylation (pErbB2)", "setting": "[7]", "value": "reduced"},
      {"measurement": "levels of ErbB2", "setting": "[7]", "value": "reduced"}
    ]}
  ]
}
